Like-named read-outs stand apart in the source and are kept apart here. A value given as a limit tells only on which side of the number the result lay.

The subject of assay [1] is differentiated human THP-1 cells. Description: stimulated release of TNF-α from differentiated human THP-1 cells (ELISA, dose-response). Format: cell-based. The following applies: for EC50: Homo sapiens. On the procedure: A screening campaign was conducted with nearly 100,000 compounds [(a) Whitby et al., Acc. Chem. Res. 2012, 45:1698-1709; and (b) Boger et al., Angew. Chem. Int. Ed. 2003, 42:4138-4176], using a newly developed functional assay that measured the stimulated release of TNF-α from treated human THP-1 cells partially differentiated along the macrophage line [unpublished results of the inventors and co-workers]. […] The libraries screened in the efforts represent a unique compound collection populated by nontraditional compounds [(a) Whitby et al., Acc. Chem. Res. 2012, 45:1698-1709; and (b) Boger et al., Angew. Chem. Int. Ed. 2003, 42:4138-4176] designed to target protein-protein [(a) Shaginian et al., J. Am. Chem. Soc. 2009, 131:5564-5572; and (b) Whitby et al., J. Am. Chem. Soc. 2011, 133:10184-10194] or protein-DNA interactions [Stover et al., J. Am. Chem. Soc. 2009, 131:3342-3348] as well as the major enzyme classes [Otrubova et al., Bioorg. Med. Chem. Lett. 2014, 24:3807-3813].
Hits were confirmed in an ELISA assay for stimulated TNF-α release from human PMA differentiated THP-1 cells and this assay was used for establishing dose-response curves and measured EC50 values.

In a further assay the test system is mouse macrophages. Kind of assay: stimulated release of TNF-α from mouse macrophages. The following applies: for EC50: Macrophage. Format: cell-based. The source says:
EC50 values are derived from dose-response curves for the stimulated release of TNF-α from differentiated THP-1 cells or mouse macrophages are shown beneath each appropriate structural formula of Compounds 8-12. Half maximal effective concentration (EC50) refers to the concentration of a drug, antibody or toxicant that induces a response halfway between the baseline and maximum after a specified exposure time. It is commonly used as a measure of a drug's potency.

[2] abbreviates: THP-1, Scheme 1, footnote a, read-out: EC50 TNF-α release from human THP-1 cells.
Setting [3] is: Mus musculus, Scheme 1, footnote b, read-out: EC50 TNF-α release from mouse macrophages.
Where [4] appears, read: THP-1, Table 1, TNF-α release from human THP-1 cells, read-out: EC50 (nM) (THP-1).
The mark [5] stands for this setting: Table 1, TNF-α release from mouse macrophages, read-out: EC50 (nM) (mouse).

Turning to `O=C(N[C@@H]1C[C@H]1c1ccccc1)[C@H]1CN(C(=O)c2ccc(C(=O)N3C[C@H](C(=O)N[C@@H]4C[C@H]4c4ccccc4)[C@@H](C(=O)N[C@@H]4C[C@H]4c4ccccc4)C3)cc2)C[C@@H]1C(=O)N[C@@H]1C[C@H]1c1ccccc1` [Compound 21, (3R,3′R,4R,4′R)-1,1′-Terephthaloylbis-(N^3,N^4-bis((1R,2S)-2-phenylcyclopropyl)pyrrolidine-3,4-dicarboxamide)], the EC50 (in assay [1] (setting [2]); in the assay on mouse macrophages (setting [3])) was more than 5000 nM in each case.

On to `O=C(N[C@H]1C[C@@H]1c1ccccc1)[C@H]1CN(C(=O)c2ccc(C(=O)N3C[C@@H](C(=O)N[C@H]4C[C@@H]4c4ccccc4)[C@H](C(=O)N[C@H]4C[C@@H]4c4ccccc4)C3)cc2)C[C@@H]1C(=O)N[C@H]1C[C@@H]1c1ccccc1` [Compound 22, (3S,4S)-1-(4-((3R,4R)-3,4-Bis(((1S,2R)-2-phenylcyclopropyl)carbamoyl)pyrrolidine-1-carbonyl)-benzoyl)—N^3,N^4-bis((1S,2R)-2-phenylcyclopropyl)-pyrrolidine-3,4-dicarboxamide], for which the results for the EC50 (in assay [1] (setting [2]); in the assay on mouse macrophages (setting [3])) were 3 nM and 150 nM, respectively.

Regarding `O=C(N[C@H]1C[C@@H]1c1ccccc1)[C@H]1CN(C(=O)c2ccc(C(=O)N3C[C@@H](C(=O)N[C@@H]4C[C@H]4c4ccccc4)[C@H](C(=O)N[C@@H]4C[C@H]4c4ccccc4)C3)cc2)C[C@@H]1C(=O)N[C@H]1C[C@@H]1c1ccccc1` [Compound 23, (3R,4R)-1-(4-((3S,4S)-3,4-Bis(((1R,2S)-2-phenyl-cyclopropyl)carbamoyl)-pyrrolidine-1-carbonyl)-benzoyl)—N^3,N^4-bis((1S,2R)-2-phenylcyclopropyl)-pyrrolidine-3,4-dicarboxamide], the EC50 (in assay [1] (setting [2]); in the assay on mouse macrophages (setting [3])) was more than 5000 nM in each case.

In the case of `O=C(N[C@@H]1C[C@H]1c1ccccc1)[C@H]1CN(C(=O)c2ccc(C(=O)N3C[C@@H](C(=O)N[C@@H]4C[C@H]4c4ccccc4)[C@H](C(=O)N[C@@H]4C[C@H]4c4ccccc4)C3)cc2)C[C@@H]1C(=O)N[C@@H]1C[C@H]1c1ccccc1` [Compound 24, (3S,4S)-1-(4-((3R,4R)-3,4-Bis(((1R,2S)-2-phenyl-cyclopropyl)carbamoyl)-pyrrolidine-1-carbonyl)-benzoyl)—N^3,N^4-bis((1R,2S)-2-phenylcyclopropyl)-pyrrolidine-3,4-dicarboxamide], the EC50 (in assay [1] (setting [2]); in the assay on mouse macrophages (setting [3])) was more than 5000 nM in each case.

For `O=C(N[C@H]1C[C@@H]1c1ccccc1)[C@@H]1CN(C(=O)c2ccc(C(=O)N3C[C@@H](C(=O)N[C@@H]4C[C@H]4c4ccccc4)[C@H](C(=O)N[C@@H]4C[C@H]4c4ccccc4)C3)cc2)C[C@H]1C(=O)N[C@H]1C[C@@H]1c1ccccc1` [Compound 25, (3S,4S)-1-(4-((3S,4S)-3,4-Bis(((1R,2S)-2-phenylcyclopropyl)carbamoyl)-pyrrolidine-1-carbonyl)-benzoyl)—N^3,N^4-bis((1S,2R)-2-phenylcyclopropyl)-pyrrolidine-3,4-dicarboxamide], the EC50 (commonly the concentration at which the effect is half-maximal) in assay [1] (setting [2]) was 6 nM; in the assay on mouse macrophages (setting [3]) it was more than 5000 nM.

Consider `O=C(N[C@H]1C[C@@H]1c1ccccc1)[C@H]1CN(C(=O)c2ccc(C(=O)N3C[C@H](C(=O)N[C@@H]4C[C@H]4c4ccccc4)[C@@H](C(=O)N[C@@H]4C[C@H]4c4ccccc4)C3)cc2)C[C@@H]1C(=O)N[C@H]1C[C@@H]1c1ccccc1` [Compound 26, (3R,4R)-1-(4-((3R,4R)-3,4-Bis(((1R,2S)-2-phenylcyclopropyl)carbamoyl)-pyrrolidine-1-carbonyl)-benzoyl)—N^3,N^4-bis((1S,2R)-2-phenylcyclopropyl)-pyrrolidine-3,4-dicarboxamide], for which the EC50 was not below 5000 nM in assay [1] (setting [2]) and more than 5000 nM in the assay on mouse macrophages (setting [3]).

Consider `O=C(N[C@@H]1C[C@H]1c1ccccc1)[C@H]1CN(C(=O)c2ccc(C(=O)N3C[C@@H](C(=O)N[C@H]4C[C@@H]4c4ccccc4)[C@H](C(=O)N[C@H]4C[C@@H]4c4ccccc4)C3)cc2)C[C@@H]1C(=O)N[C@@H]1C[C@H]1c1ccccc1` [Compound 27, (3S,4S)-1-(4-((3R,4R)-3,4-Bis(((1R,2S)-2-phenyl-cyclopropyl)carbamoyl)-pyrrolidine-1-carbonyl)-benzoyl)—N^3,N^4-bis((1S,2R)-2-phenylcyclopropyl)-pyrrolidine-3,4-dicarboxamide], for which the EC50 in assay [1] (setting [2]) is 20 nM; in the assay with mouse macrophages (setting [3]), not below 5000 nM.

In the case of `O=C(N[C@H]1C[C@@H]1c1ccccc1)[C@@H]1CN(C(=O)c2ccc(C(=O)N3CCCC3)cc2)C[C@H]1C(=O)N[C@H]1C[C@@H]1c1ccccc1` [Compound 30, (3S,4S)—N^3,N^4-Bis((S, 2R)-2-phenyl-cyclopropyl)-1-(4-(pyrrolidine-1-carbonyl)benzoyl)-pyrrolidine-3,4-dicarboxamide], the EC50 in assay [1] (THP-1, running text, read-out: EC50, stimulated release of TNF-α from differentiated human THP-1 cells) came out at 2000 nM. Further, the “fold less active/potent than diprovocim-1 (3)” value in assay [1] (human THP-1 cells) is given as 20,000 fold. Besides, the “fold less active than 29” value with mouse macrophages (printed as in mouse macrophages) turned out to be 10 fold.

In the case of `O=C(N[C@H]1C[C@@H]1c1ccccc1)C1CN(C(=O)C#CC(=O)N2C[C@@H](C(=O)N[C@H]3C[C@@H]3c3ccccc3)[C@H](C(=O)N[C@H]3C[C@@H]3c3ccccc3)C2)C[C@H]1C(=O)N[C@H]1C[C@@H]1c1ccccc1` (stereo partly drawn) [Compound 35, (3S,3′S,4S,4′S)-1,1′-(But-2-ynedioyl)-bis(N^3,N^4-bis((1S,2R)-2-phenylcyclopropyl)-pyrrolidine-3,4-dicarboxamide)], the EC50 (in assay [1] (setting [4]); in the assay with mouse macrophages (setting [5])) was more than 5000 nM throughout.

As for `O=C(N[C@H]1C[C@@H]1c1ccccc1)[C@@H]1CN(C(=O)/C=C/C(=O)N2C[C@@H](C(=O)N[C@H]3C[C@@H]3c3ccccc3)[C@H](C(=O)N[C@H]3C[C@@H]3c3ccccc3)C2)C[C@H]1C(=O)N[C@H]1C[C@@H]1c1ccccc1` [Compound 36, (3S,3′S,4S,4′S)-1,1′-Fumaroyl-bis(N^3,N^4-bis((1S,2R)-2-phenylcyclopropyl)pyrrolidine-3,4-dicarboxamide)], the EC50 (in assay [1] (setting [4]); in the assay with mouse macrophages (setting [5])) was more than 5000 nM throughout.

On to `O=C(N[C@H]1C[C@@H]1c1ccccc1)[C@@H]1CN(C(=O)C/C=C/CC(=O)N2C[C@@H](C(=O)N[C@H]3C[C@@H]3c3ccccc3)[C@H](C(=O)N[C@H]3C[C@@H]3c3ccccc3)C2)C[C@H]1C(=O)N[C@H]1C[C@@H]1c1ccccc1` [Compound 37, (3S,3′S,4S,4′S)-1,1′-((E)-Hex-3-enedoyl)bis-(N^3,N^4-bis((1S,2R)-2-phenylcyclopropyl)pyrrolidine-3,4-dicarboxamide)], for which the EC50 (in assay [1] (setting [4]); with mouse macrophages (setting [5])) was more than 5000 nM each time.

For the compound `O=C(N[C@H]1C[C@@H]1c1ccccc1)[C@@H]1CN(C(=O)c2cccc(C(=O)N3C[C@@H](C(=O)N[C@H]4C[C@@H]4c4ccccc4)[C@H](C(=O)N[C@H]4C[C@@H]4c4ccccc4)C3)c2)C[C@H]1C(=O)N[C@H]1C[C@@H]1c1ccccc1` [Compound 38, (3S,3′S,4S,4′S)-1,1′-Isophthaloyl-bis-(N^3,N^4-bis((1S,2R)-2-phenylcyclopropyl)-pyrrolidine-3,4-dicarboxamide)], the EC50 (in assay [1] (setting [4]); with mouse macrophages (setting [5])) was more than 5000 nM throughout.

For `O=C(N[C@H]1C[C@@H]1c1ccccc1)[C@@H]1CN(C(=O)c2ccc(-c3ccc(C(=O)N4C[C@@H](C(=O)N[C@H]5C[C@@H]5c5ccccc5)[C@H](C(=O)N[C@H]5C[C@@H]5c5ccccc5)C4)cc3)cc2)C[C@H]1C(=O)N[C@H]1C[C@@H]1c1ccccc1` [Compound 39, (3S,3′S,4S,4′S)-1,1′-(4,4′-Biphenyldicarboxoyl)-bis(N^3,N^4-bis((1S,2R)-2-phenylcyclopropyl)-pyrrolidine-3,4-dicarboxamide)], the EC50 in assay [1] (setting [4]) stood at 90 nM; in the assay with mouse macrophages (setting [5]), 2300 nM.

As to `O=C(N[C@H]1C[C@@H]1c1ccccc1)[C@@H]1CN(C(=O)COCC(=O)N2C[C@@H](C(=O)N[C@H]3C[C@@H]3c3ccccc3)[C@H](C(=O)N[C@H]3C[C@@H]3c3ccccc3)C2)C[C@H]1C(=O)N[C@H]1C[C@@H]1c1ccccc1` [Compound 40, (3S,3′S,4S,4′S)-1,1′-(2,2′-Oxybis-(acetyl))bis-(N^3,N^4-bis((1S,2R)-2-phenylcyclopropyl)pyrrolidine-3,4-dicarboxamide)], the concentration giving a half-maximal response (EC50) (in assay [1] (setting [4]); with mouse macrophages (setting [5])) was more than 5000 nM throughout.

As for `O=C(N[C@H]1C[C@@H]1c1ccccc1)[C@@H]1CN(C(=O)[C@@H]2CCC[C@H](C(=O)N3C[C@@H](C(=O)N[C@H]4C[C@@H]4c4ccccc4)[C@H](C(=O)N[C@H]4C[C@@H]4c4ccccc4)C3)C2)C[C@H]1C(=O)N[C@H]1C[C@@H]1c1ccccc1` [Compound 41, (3S,3′S,4S,4′S)-1,1′-(cis-1,3-Cyclohexane-dicarbonyl)bis(N^3,N^4-bis((1S,2R)-2-phenyl-cyclopropyl)pyrrolidine-3,4-dicarboxamide)], the EC50 (in assay [1] (setting [4]); in the assay on mouse macrophages (setting [5])) was more than 5000 nM each time.

For the origin of these results see patent US11040959B2, “Diprovocims: a new and potent class of TLR agonists” (The Scripps Research Institute, priority 2016, dated 2021).
